Results on three compounds are retold here after US20070275948A1, “7-[4-(4-Chlorobenzyloxy)Benzenesulfonyl]-8-Methoxy-3-Methyl-2,3,4,5-Tetrahydro-1h-3-Benzazepinium Maleate Or Tosylate As antipyschotics” (priority 2003, published 2007).

SMILES strings stand for the structures.

Data set [1] can be described thus: Hygroscopicity / solid-state stability to humidity. The note with it: for stability with respect to hygroscopicity and loss of water / changes when exposed to very high humidity: anhydrates; for stability over the free base and over the hydrochloride salt, particularly with respect to hygroscopicity: compared with free base and hydrochloride salt.
For data set [2], the target named is dopamine D3 receptor (Homo sapiens, UniProt P35462). The experiment in a line: Affinity for dopamine D3 receptor. In kind it is binding. The settings on record: for affinity for dopamine D3 relative to D2 receptors: D3 versus D2.
The target in data set [3] is dopamine D2 receptor (Homo sapiens, UniProt P14416). The experiment in a line: Affinity for dopamine D2 receptor. In kind it is binding.
Data set [4] has as its target T1, serotonin 5-HT2C receptor (Homo sapiens, UniProt P28335).
T1 sequence (P28335 33-458): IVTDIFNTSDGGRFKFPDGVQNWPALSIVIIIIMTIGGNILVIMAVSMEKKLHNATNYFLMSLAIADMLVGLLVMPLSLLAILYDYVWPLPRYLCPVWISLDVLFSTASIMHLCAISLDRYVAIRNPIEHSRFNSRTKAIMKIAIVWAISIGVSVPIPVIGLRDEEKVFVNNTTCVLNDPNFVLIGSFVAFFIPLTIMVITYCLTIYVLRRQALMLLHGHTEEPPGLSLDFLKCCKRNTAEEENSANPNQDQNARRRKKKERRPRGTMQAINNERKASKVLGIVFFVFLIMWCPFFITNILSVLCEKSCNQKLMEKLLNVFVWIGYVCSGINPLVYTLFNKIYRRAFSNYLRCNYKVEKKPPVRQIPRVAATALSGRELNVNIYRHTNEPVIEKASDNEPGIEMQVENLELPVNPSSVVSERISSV
Description: Antagonist affinity for serotonin 5-HT2C receptor. In kind it is binding.

dopamine D3 receptor, sequence (P35462 whole entry, species assumed): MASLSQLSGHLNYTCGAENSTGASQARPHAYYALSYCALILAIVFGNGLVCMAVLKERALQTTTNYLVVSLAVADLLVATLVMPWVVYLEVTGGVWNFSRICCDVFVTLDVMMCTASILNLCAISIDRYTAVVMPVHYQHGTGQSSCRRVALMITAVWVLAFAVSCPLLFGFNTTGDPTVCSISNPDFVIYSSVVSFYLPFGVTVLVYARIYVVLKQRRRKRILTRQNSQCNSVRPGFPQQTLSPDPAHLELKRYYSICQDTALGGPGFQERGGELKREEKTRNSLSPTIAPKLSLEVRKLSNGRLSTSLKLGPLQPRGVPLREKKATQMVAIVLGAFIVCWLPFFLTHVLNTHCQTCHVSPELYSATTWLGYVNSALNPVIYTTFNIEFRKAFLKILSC
dopamine D2 receptor, sequence (P14416 whole entry): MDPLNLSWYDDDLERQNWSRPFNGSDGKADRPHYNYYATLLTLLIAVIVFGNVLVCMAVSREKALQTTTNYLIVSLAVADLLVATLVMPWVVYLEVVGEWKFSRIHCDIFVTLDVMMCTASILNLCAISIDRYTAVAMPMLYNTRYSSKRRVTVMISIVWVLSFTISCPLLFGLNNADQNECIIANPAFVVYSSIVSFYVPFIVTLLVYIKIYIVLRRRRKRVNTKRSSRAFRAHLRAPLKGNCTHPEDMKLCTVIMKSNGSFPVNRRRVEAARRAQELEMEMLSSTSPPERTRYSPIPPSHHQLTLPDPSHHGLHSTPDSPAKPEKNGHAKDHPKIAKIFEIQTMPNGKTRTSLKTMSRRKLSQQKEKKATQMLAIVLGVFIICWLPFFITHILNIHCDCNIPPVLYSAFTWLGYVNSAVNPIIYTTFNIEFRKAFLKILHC

Take `COc1cc2c(cc1S(=O)(=O)c1ccc(OCc3ccc(Cl)cc3)cc1)CCN(C)CC2` [free base, 7-[4-(4-chlorobenzyloxy)benzenesulfonyl]-8-methoxy-3-methyl-2,3,4,5-tetrahydro-1H-3-benzazepine]: the hygroscopicity result in data set [1] (multiple forms, all of those tested) is reported as “hygroscopic”.
For the compound `COc1cc2c(cc1S(=O)(=O)c1ccc(OCc3ccc(Cl)cc3)cc1)CCN(C)CC2.Cc1ccc(S(=O)(=O)O)cc1` [tosylate, 7-[4-(4-Chlorobenzyloxy)benzenesulfonyl]-8-methoxy-3-methyl-2,3,4,5-tetrahydro-1H-3-benzazepinium p-toluenesulfonate], in data set [2], the “affinity for dopamine D3 receptors” value was “exhibit affinity” and the “affinity for dopamine D3 relative to D2 receptors” value was “greater affinity for dopamine D3 than for D2 receptors”. The “affinity for dopamine D2 receptors” value in data set [3] was “exhibit affinity”. In addition, in data set [4], the “antagonist affinity for the serotonin 5-HT2C receptor” value is listed as “antagonist affinity”. Also, in data set [1], the “stability with respect to hygroscopicity and loss of water” value is recorded as “particular stability”; the “changes when exposed to very high humidity” value is “reversible changes”; the “stability over the free base and over the hydrochloride salt, particularly with respect to hygroscopicity” value was “improved stability”.
Consider `COc1cc2c(cc1S(=O)(=O)c1ccc(OCc3ccc(Cl)cc3)cc1)CCN(C)CC2.O=C(O)/C=C\C(=O)O` [maleate, 7-[4-(4-chlorobenzyloxy)benzenesulfonyl]-8-methoxy-3-methyl-2,3,4,5-tetrahydro-1H-3-benzazepinium maleate], for which, in data set [2], the “affinity for dopamine D3 receptors” value is reported as “exhibit affinity” and the “affinity for dopamine D3 relative to D2 receptors” value is “greater affinity for dopamine D3 than for D2 receptors”. Besides, in data set [3], the “affinity for dopamine D2 receptors” value was “exhibit affinity”. The “antagonist affinity for the serotonin 5-HT2C receptor” value in data set [4] was “antagonist affinity”. In data set [1], the “stability with respect to hygroscopicity and loss of water” value is recorded as “particular stability”; the “changes when exposed to very high humidity” value is on record as “reversible changes”; the “stability over the free base and over the hydrochloride salt, particularly with respect to hygroscopicity” value is on record as “improved stability”.
